Experimental data published in patent US20190369111A1, “MOLECULAR KINETICS EVALUATION METHOD AND SCREENING METHOD” (Tokyo University of Science Foundation, priority 2016, published 2019).

Biological target: T1, MDM2 protein (Mus musculus, UniProt P23804)
T1 construct: administered intraperitoneally to C57BL/6J wild-type mice; from tissue; host or cells: C57BL/6J wild-type mice: liver, kidneys, spleen, heart
Assay: Degradation of MDM2 protein in each tissue of mouse after administration, Western blot analysis
Assay type: in vivo
Conditions: 48 hours after administration
Experimental: TIBC-CANDDY_MLN was dissolved in DMSO immediately before administration, and then dissolved in corn oil (Code No. 25606-55, Nacalai Tesque) so that the concentration of DMSO was 10 vol %, and then a dose of 50 mg/kg body weight or 100 mg/kg body weight was administered intraperitoneally to C57BL/6J wild-type mice (7 to 8 weeks old, male) (CLEA Japan, Inc.) (n=3). As a control, an injection carrier (corn oil containing 10 vol % DMSO) was used. The mice were kept under an environment of ad libitum access to food and water. The mice were dissected under deep anesthesia by Somnopentyl (Kyoritsu Seiyaku Corporation) 48 hours after administration. Abdominal section was performed, and then the liver, kidneys, spleen, and heart were sequentially extracted and flash frozen in liquid nitrogen. Each tissue frozen in liquid nitrogen was stored in a deep freezer at −80° C.
The frozen tissues (spleen: 0.02 g, other tissues: 0.04 g) were each frozen and triturated, and then 1×TKM tissue lysis buffer (50 mM triethanolamine (pH 7.8), 50 mM KCl, 5 mM MgCl2, 0.25 M sucrose, 1 mM PMSF, protein inhibitors cocktail-EDTA free (Code No. 03969-21, Nacalai Tesque), 1 mM DTT, and 5 μL/mL recombinant RNase inhibitor (40 U/μL, Cat No. 2313A, Lot No. K8402DA, TAKARA Bio)) were added in an amount of 490 μL for the spleen and 980 μL for the others, and dissolved by rotation for 15 minutes (1 rpm, 25° C.). Then, the resultant product was subjected to centrifugation (at 3000 rpm×15 minutes, 4° C.), and the supernatants (each tissue extract) was collected. The concentration of proteins in each tissue extract was quantified with a spectrophotometer using each tissue extract that had been diluted 20 times using DEPC-treated water.
Each tissue extract collected was subjected to Western blot analysis. An SDS-PAGE gel was prepared using TGX™ FastCast™ Acrylamide Kit, 12% (Bio-Rad). Electrophoresis samples were prepared in a 6×SDS-PAGE sample buffer (62.5 mM Tris-HCl pH 6.8, 2% SDS, 5% 2-mercaptoethanol, 10% glycerol, 0.25% BPB), and placed on a heat block at 95° C. for 5 minutes. The electrophoresis samples prepared were applied at 50 μg/well for detecting GAPDH, and at 100 μg/well for other detection. […]
After electrophoresis, proteins were transferred to a PVDF membrane (Immobion™-P, Millipore) under conditions of 100 V and 1.5 hours using a tank-type blotting device and a transfer buffer (25 mM Tris-HCl, 195 mM glycine, 0.01% SDS, 15% methanol). […] Subsequently, the membrane was treated with a chemiluminescence reagent Immobilon™ Western (Millipore), and then chemiluminescence was detected using a lumino image analyzer LAS-3000 (FUJIFILM Corporation). Detected bands were quantified with an image processing software ImageJ (NIH).

T1 sequence (P23804 whole entry): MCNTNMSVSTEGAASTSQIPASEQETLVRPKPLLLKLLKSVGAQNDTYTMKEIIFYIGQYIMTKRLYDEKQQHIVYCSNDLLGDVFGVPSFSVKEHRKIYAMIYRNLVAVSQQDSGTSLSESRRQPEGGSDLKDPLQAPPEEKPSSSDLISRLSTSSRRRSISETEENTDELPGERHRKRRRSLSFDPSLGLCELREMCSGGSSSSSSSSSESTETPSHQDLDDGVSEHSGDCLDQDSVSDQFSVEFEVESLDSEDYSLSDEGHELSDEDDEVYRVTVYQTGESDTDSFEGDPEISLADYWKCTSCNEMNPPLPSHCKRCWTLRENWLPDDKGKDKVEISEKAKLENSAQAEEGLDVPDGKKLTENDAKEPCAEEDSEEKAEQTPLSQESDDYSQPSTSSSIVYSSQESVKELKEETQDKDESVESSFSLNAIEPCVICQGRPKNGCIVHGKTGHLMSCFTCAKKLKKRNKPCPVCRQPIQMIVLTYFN

CC(C)C[C@H](NC(=O)CNC(=O)c1cc(Cl)ccc1Cl)C(=O)NCCCCCCC(=O)Nc1ccc(C(=O)/C=C/c2ccc(I)cc2)cc1 [TIBC-CANDDY_MLN]
amount of MDM2 protein in heart (intraperitoneal 50 or 100 mg/kg body weight, heart): reduced in a concentration dependent manner | amount of MDM2 protein in kidneys (intraperitoneal 50 or 100 mg/kg body weight, kidneys): reduction of the target was not found | amount of MDM2 protein in spleen (intraperitoneal 50 or 100 mg/kg body weight, spleen): reduced in a concentration dependent manner | amount of MDM2 protein in liver (intraperitoneal, only at a dose of 100 mg/kg body weight, liver): reduced slightly
